Reference: US9656955B2, “Pyrrolidine derivatives, pharmaceutical compositions containing them, and their use in therapy” (AbbVie Deutschland GmbH & Co. KG, priority 2013, dated 2017)

What follows are compounds tested against human GlyT1c transporter (Homo sapiens (Human), UniProt P48067) (assay: Radioligand binding assays using recombinant CHO cell membranes expressing human GlyT1). Settings: radioligand binding, human GlyT1c transporter-expressing CHO cell membranes.
human GlyT1c transporter, sequence (P48067 whole entry): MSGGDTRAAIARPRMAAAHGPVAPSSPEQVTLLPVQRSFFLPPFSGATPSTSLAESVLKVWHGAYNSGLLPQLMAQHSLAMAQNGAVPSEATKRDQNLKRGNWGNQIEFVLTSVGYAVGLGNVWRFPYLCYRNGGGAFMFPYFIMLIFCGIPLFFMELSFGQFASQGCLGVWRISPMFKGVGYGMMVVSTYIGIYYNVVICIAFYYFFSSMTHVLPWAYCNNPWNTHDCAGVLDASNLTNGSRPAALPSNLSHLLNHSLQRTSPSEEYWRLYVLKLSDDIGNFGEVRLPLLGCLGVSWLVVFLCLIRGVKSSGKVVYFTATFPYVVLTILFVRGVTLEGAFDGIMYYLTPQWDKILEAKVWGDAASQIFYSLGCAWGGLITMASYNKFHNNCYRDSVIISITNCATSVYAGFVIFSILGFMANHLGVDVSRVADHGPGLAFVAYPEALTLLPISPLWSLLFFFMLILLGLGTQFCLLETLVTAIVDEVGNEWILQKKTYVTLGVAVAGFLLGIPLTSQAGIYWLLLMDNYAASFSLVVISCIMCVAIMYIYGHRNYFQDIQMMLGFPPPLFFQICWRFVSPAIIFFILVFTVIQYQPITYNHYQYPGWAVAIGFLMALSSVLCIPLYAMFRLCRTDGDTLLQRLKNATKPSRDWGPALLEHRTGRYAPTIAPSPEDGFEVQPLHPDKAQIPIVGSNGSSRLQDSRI
For Cn1cnc(S(=O)(=O)N2CC(Nc3cccc(C(F)(F)F)c3)C(C3CCCO3)C2)c1 (stereo not drawn) [Example 603, 1-[(1-methyl-1H-imidazol-4-yl)sulfonyl]-4-(tetrahydrofuran-2-yl)-N-[3-(trifluoromethyl)phenyl]pyrrolidin-3-amine], the Ki was ≤ 0.1 µM. With CCCCNC(=O)[C@@H]1CN(S(=O)(=O)c2cn(C)cn2)C[C@H]1c1ccc(F)cc1 [Example 581, (3S,4R)—N-butyl-4-(4-fluorophenyl)-1-[(1-methyl-1H-imidazol-4-yl)sulfonyl]pyrrolidine-3-carboxamide] the Ki was ≤ 0.1 µM. Cn1ccc(S(=O)(=O)N2CC(Nc3ccc(F)c(F)c3)C(c3ccccc3)C2)n1 (stereo not drawn) [Example 502, N-(3,4-difluorophenyl)-1-[(1-methyl-1H-pyrazol-3-yl)sulfonyl]-4-phenylpyrrolidin-3-amine] was tested, and the Ki was ≤ 10 µM. With Cn1cc(S(=O)(=O)N2C[C@H](Nc3cccc(Cl)c3)[C@@H](c3ccc(F)cc3)C2)nn1 [Example 841, (3R,4S)—N-(3-chlorophenyl)-4-(4-fluorophenyl)-1-[(1-methyl-1H-1,2,3-triazol-4-yl)sulfonyl]pyrrolidin-3-amine] the Ki was ≤ 0.01 µM. With Cn1cnc(S(=O)(=O)N2C[C@H](NC(=O)CCC(C)(F)F)[C@@H](c3ccc(F)cc3)C2)c1 [Example 754, 4,4-difluoro-N-{(3R,4S)-4-(4-fluorophenyl)-1-[(1-methyl-1H-imidazol-4-yl)sulfonyl]pyrrolidin-3-yl}pentanamide] the Ki was ≤ 10 µM. In the case of CC(C)COC(=O)N[C@H]1CN(S(=O)(=O)c2cn(C)cn2)C[C@@H]1c1ccccc1 [Example 543, 2-methylpropyl {(3R,4S)-1-[(1-methyl-1H-imidazol-4-yl)sulfonyl]-4-phenylpyrrolidin-3-yl}carbamate], the Ki is reported as ≤ 10 µM. COC(=O)c1ccc(S(=O)(=O)N2CC(Nc3ccc(F)c(F)c3)C(c3ccccc3)C2)n1C (stereo not drawn) [Example 504, methyl 5-({3-[(3,4-difluorophenyl)amino]-4-phenylpyrrolidin-1-yl}sulfonyl)-1-methyl-1H-pyrrole-2-carboxylate] was tested, and the Ki was ≤ 10 µM. For Cn1cnc(S(=O)(=O)N2C[C@H](Nc3cc(Cl)ccn3)[C@@H](c3ccc(F)cc3)C2)c1 [Example 759, 4-chloro-N-{(3R,4S)-4-(4-fluorophenyl)-1-[(1-methyl-1H-imidazol-4-yl)sulfonyl]pyrrolidin-3-yl}pyridin-2-amine], the Ki was ≤ 0.01 µM. In the case of Cc1ccc(CO[C@H]2CN(S(=O)(=O)c3cn(C)cn3)C[C@@H]2c2ccc(F)cc2)cc1 [Example 731, 4-({(3S,4R)-3-(4-fluorophenyl)-4-[(4-methylbenzyl)oxy]pyrrolidin-1-yl}sulfonyl)-1-methyl-1H-imidazole], the Ki is reported as ≤ 0.1 µM. With CCCCCCN[C@H]1CN(S(=O)(=O)c2cn(C)cn2)C[C@@H]1c1ccc(F)cc1 [Example 665, (3R,4S)-4-(4-fluorophenyl)-N-hexyl-1-[(1-methyl-1H-imidazol-4-yl)sulfonyl]pyrrolidin-3-amine] the Ki was ≤ 0.01 µM. Cn1cnc(S(=O)(=O)N2C[C@H](Nc3cc(OCC(F)(F)F)c(Cl)cn3)[C@@H](c3ccccc3)C2)c1 [Example 808, 5-chloro-N-{(3R,4S)-1-[(1-methyl-1H-imidazol-4-yl)sulfonyl]-4-phenylpyrrolidin-3-yl}-4-(2,2,2-trifluoroethoxy)pyridin-2-amine] was tested, and the Ki was ≤ 0.01 µM. For Cn1cnc(S(=O)(=O)N2C[C@H](Nc3cc(OC4CCC4)ncn3)[C@@H](c3ccc(F)cc3)C2)c1 [Example 719, 6-(cyclobutyloxy)-N-{(3R,4S)-4-(4-fluorophenyl)-1-[(1-methyl-1H-imidazol-4-yl)sulfonyl]pyrrolidin-3-yl}pyrimidin-4-amine], the Ki was ≤ 0.1 µM. Cc1cc(N[C@H]2CN(S(=O)(=O)c3cn(C)cn3)C[C@@H]2c2ccc(F)cc2)ncc1F [Example 748, 5-fluoro-N-{(3R,4S)-4-(4-fluorophenyl)-1-[(1-methyl-1H-imidazol-4-yl)sulfonyl]pyrrolidin-3-yl}-4-methylpyridin-2-amine] was tested, and the Ki was ≤ 0.01 µM. In the case of Cn1cnc(S(=O)(=O)N2C[C@H](NCc3cccc4cncn34)[C@@H](c3ccccc3)C2)c1 [Example 560, (3R,4S)—N-(imidazo[1,5-a]pyridin-5-ylmethyl)-1-[(1-methyl-1H-imidazol-4-yl)sulfonyl]-4-phenylpyrrolidin-3-amine], the Ki is reported as ≥ 10 µM. For Cn1cnc(S(=O)(=O)N2C[C@@H](C(=O)c3ccc(F)cc3)[C@H](c3ccc(F)cc3)C2)c1 (relative stereo) [Example 303, (4-fluorophenyl){trans-4-(4-fluorophenyl)-1-[(1-methyl-1H-imidazol-4-yl)sulfonyl]pyrrolidin-3-yl}methasone], the Ki was ≤ 10 µM.
